For 19 compounds, Ki results are on record in patent US20260285855A1, “HETEROARYL DERIVATIVES AS DDRS INHIBITORS” (CHIESI FARMACEUTICI S.P.A., priority 2023, published 2026).

For assay [1], the target named is T1, DDR1 (Homo sapiens, UniProt Q08345).
T1 construct: purchased Carna Biosciences
The assay can be described thus: LanthaScreen Europium Kinase Binding assay, DDR1. As to conditions: 5 nM DDR1, 20 nM Kinase Tracer 178, 1 h at rt; Ki from IC50 by Cheng-Prusoff; read-out: Ki DDR1. The method, then: (§1) DDR1 and DDR2 binding assays were performed using Life Technologies LanthaScreen™ Europium Kinase Binding assay. […] IC50 values were determined in GraphPad Prism 7.0 software, using 4 parameter model: log (inhibitor) vs. response. IC50 values were converted in Ki using the Cheng-Prusoff equation (Ki-IC50/(1+ [Tracer]/Kd).

For assay [2], the target named is T2, DDR2 (Homo sapiens, UniProt Q16832).
T2 construct: purchased Life Technologies
T2 sequence (Q16832 22-855): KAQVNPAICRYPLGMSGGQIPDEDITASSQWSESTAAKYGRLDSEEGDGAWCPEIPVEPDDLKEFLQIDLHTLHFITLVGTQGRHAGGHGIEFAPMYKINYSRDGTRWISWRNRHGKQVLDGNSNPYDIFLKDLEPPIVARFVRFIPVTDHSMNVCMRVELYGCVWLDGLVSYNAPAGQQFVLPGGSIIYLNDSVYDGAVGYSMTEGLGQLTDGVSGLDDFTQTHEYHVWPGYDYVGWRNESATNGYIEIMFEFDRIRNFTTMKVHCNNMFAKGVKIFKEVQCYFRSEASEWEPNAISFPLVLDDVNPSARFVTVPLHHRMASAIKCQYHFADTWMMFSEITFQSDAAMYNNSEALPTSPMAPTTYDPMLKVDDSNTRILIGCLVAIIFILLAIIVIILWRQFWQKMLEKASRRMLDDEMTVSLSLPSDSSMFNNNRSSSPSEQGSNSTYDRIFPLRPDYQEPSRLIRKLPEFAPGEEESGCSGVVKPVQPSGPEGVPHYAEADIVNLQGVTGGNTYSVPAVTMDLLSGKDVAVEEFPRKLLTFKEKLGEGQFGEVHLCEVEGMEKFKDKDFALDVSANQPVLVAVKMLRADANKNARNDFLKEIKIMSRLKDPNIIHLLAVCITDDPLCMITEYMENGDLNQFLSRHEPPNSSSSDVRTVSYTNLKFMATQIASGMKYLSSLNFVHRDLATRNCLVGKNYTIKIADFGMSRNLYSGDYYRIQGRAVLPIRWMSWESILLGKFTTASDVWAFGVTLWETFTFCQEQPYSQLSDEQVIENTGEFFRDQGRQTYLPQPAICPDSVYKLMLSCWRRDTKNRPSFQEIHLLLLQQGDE
The assay can be described thus: LanthaScreen Europium Kinase Binding assay, DDR2. The settings on record: 5 nM DDR2, 10 nM Kinase Tracer 178, 1 h at rt; Ki from IC50 by Cheng-Prusoff; read-out: Ki DDR2. How it is done:
as §1
In general terms: In TR-FRET formats the signal depends on donor and acceptor labels being close together.

The term Ki denotes the dissociation constant of the complex between target and ligand, obtained from inhibition or displacement.

Each structure is given as a SMILES string. A value given as a limit tells only on which side of the number the result lay.

T1 sequence (Q08345 19-913): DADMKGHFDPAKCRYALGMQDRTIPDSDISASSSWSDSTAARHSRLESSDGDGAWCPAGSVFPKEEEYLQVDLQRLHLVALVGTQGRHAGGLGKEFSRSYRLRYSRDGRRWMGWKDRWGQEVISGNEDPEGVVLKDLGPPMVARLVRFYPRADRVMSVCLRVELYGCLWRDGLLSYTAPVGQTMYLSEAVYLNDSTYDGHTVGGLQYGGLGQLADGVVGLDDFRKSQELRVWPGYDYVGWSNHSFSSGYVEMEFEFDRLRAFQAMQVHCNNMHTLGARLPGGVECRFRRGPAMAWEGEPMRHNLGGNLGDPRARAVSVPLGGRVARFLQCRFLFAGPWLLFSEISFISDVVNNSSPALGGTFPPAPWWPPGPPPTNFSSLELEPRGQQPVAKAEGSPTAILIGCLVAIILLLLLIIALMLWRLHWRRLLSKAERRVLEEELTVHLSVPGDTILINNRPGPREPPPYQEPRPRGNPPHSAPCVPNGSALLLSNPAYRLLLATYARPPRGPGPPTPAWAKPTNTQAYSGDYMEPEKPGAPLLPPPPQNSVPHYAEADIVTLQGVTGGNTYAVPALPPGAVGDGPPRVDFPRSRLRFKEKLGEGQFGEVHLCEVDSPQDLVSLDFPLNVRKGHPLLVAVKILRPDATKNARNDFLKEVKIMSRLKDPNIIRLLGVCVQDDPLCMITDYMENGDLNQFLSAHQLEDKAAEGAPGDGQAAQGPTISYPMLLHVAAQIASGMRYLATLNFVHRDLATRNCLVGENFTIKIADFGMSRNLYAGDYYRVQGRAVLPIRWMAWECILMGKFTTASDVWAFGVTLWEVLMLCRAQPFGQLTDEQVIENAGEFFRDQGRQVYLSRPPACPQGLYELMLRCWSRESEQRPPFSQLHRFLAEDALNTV

Regarding `CN(C(=O)Nc1cncc(C(F)(F)F)c1)C1CC2(C1)CN(C(=O)c1cnn3cc(-c4cncnc4)ccc13)C2` [Example 245, 1-methyl-1-(2-(6-(pyrimidin-5-yl)pyrazolo[1,5-a]pyridine-3-carbonyl)-2-azaspiro[3.3]heptan-6-yl)-3-(5-(trifluoromethyl)pyridin-3-yl)urea], the Ki is less than 5 nM in assay [1] and 5 to 25 nM in assay [2].

As to `Cn1ccn2ncc(C(=O)N3CC4(CC(CC(=O)Nc5cc(C(F)(F)F)ccn5)C4)C3)c12` [Example 279, 2-(2-(1-methyl-1H-imidazo[1,2-b]pyrazole-7-carbonyl)-2-azaspiro[3.3]hepan-6-yl)-N-(4-(trifluoromethyl)pyridin-2-yl)acetamide], the Ki in assay [1] and in assay [2] was less than 5 nM each time.

Regarding `COCCn1cc(-c2ccc3c(C(=O)N4CC5(CC(N(C)C(=O)Nc6cncc(C(F)(F)F)c6)C5)C4)cnn3c2)cn1` [Example 227, 1-(2-(6-(1-(2-methoxyethyl)-1H-pyrazol-4-yl)pyrazolo[1,5-a]pyridine-3-carbonyl)-2-azaspiro[3.3]heptan-6-yl)-1-methyl-3-(5-(trifluoromethyl)pyridin-3-yl)urea], the inhibitory constant (Ki) in assay [1] is less than 5 nM; in assay [2] it was 5 to 25 nM.

On to `O=C(Nc1cncc(C(F)(F)F)c1)OC1CC2(C1)CN(C(=O)c1cnn3ccsc13)C2` [Example 273, 2-(pyrazolo[5,1-b]thiazole-7-carbonyl)-2-azaspiro[3.3]heptan-6-yl(5-(trifluoromethyl)pyridin-3-yl)carbamate], for which the Ki in assay [1] and in assay [2] was less than 5 nM each time.

Turning to `Cc1ccc(C(F)(F)F)cc1NC(=O)OC1CC2(C1)CN(C(=O)c1cnn3ccn(C)c13)C2` [Example 270, 2-(1-methyl-1H-imidazo[1,2-b]pyrazole-7-carbonyl)-2-azaspiro[3.3]heptan-6-yl(2-methyl-5-(trifluoromethyl)phenyl)carbamate], the Ki in assay [1] and in assay [2] was less than 5 nM in each case.

Regarding `COCCn1ccn2ncc(C(=O)N3CC4(CC(N(C)C(=O)Nc5cc(OC(F)(F)F)ccn5)C4)C3)c12` [Example 202, 1-(2-(1-(2-methoxyethyl)-1H-imidazo[1,2-b]pyrazole-7-carbonyl)-2-azaspiro[3.3]heptan-6-yl)-1-methyl-3-(4-(trifluoromethoxy)pyridin-2-yl)urea], the Ki is less than 5 nM in assay [1] and 25 to 100 nM in assay [2].

As to `CN1CCN(c2ccc3ncc(C(=O)N4CC5(CC(NC(=O)Nc6cccc(C(F)(F)F)c6)C5)C4)n3c2)CC1` [Example 5, 1-(2-(6-(4-methylpiperazin-1-yl)imidazo[1,2-a]pyridine-3-carbonyl)-2-azaspiro[3.3]heptan-6-yl)-3-(3-(trifluoromethyl)phenyl)urea], the Ki in assay [1] was less than 5 nM; in assay [2] it was 5 to 25 nM.

Take `Cn1nc(NC(=O)NC2CC3(C2)CN(C(=O)c2ncnc4ccsc24)C3)cc1C(C)(C)C` [Example 100, 1-(5-(tert-butyl)-1-methyl-1H-pyrazol-3-yl)-3-(2-(thieno[3,2-d]pyrimidine-4-carbonyl)-2-azaspiro[3.3]heptan-6-yl)urea]: the Ki in assay [1] is less than 5 nM; in assay [2], 5 to 25 nM.

Regarding `O=C(Nc1cc(OC(F)(F)F)ccn1)NC1CC2(C1)CN(C(=O)c1ccnc3[nH]ncc13)C2` [Example 154, 1-(2-(1H-pyrazolo[3,4-b]pyridine-4-carbonyl)-2-azaspiro[3.3]heptan-6-yl)-3-(4-(trifluoromethoxy)pyridin-2-yl)urea], the Ki in assay [1] is less than 5 nM; in assay [2] it was 5 to 25 nM.

For the compound `O=C(Nc1cccc(C(F)(F)F)c1)NC1CC2(C1)CN(C(=O)c1cnn3ccccc13)C2` [Example 40, 1-(2-(pyrazolo[1,5-a]pyridine-3-carbonyl)-2-azaspiro[3.3]heptan-6-yl)-3-(3-(trifluoromethyl)phenyl)urea], the Ki in assay [1] and in assay [2] was less than 5 nM throughout.

For `Cc1ccc(OC(F)(F)F)cc1NC(=O)NC1CC2(C1)CN(c1cnc3[nH]ncc3c1)C2` [Example 307, 1-(2-(1H-pyrazolo[3,4-b]pyridin-5-yl)-2-azaspiro[3.3]heptan-6-yl)-3-(2-methyl-5-(trifluoromethoxy)phenyl)urea], the values for the Ki in assay [1] and in assay [2] were 5 to 25 nM and 25 to 100 nM, respectively.

Turning to `CN(C(=O)Nc1cncc(C(F)(F)F)c1)C1CC2(C1)CN(C(=O)c1ncnc3[nH]ccc13)C2` [Example 206, 1-(2-(7H-pyrrolo[2,3-d]pyrimidine-4-carbonyl)-2-azaspiro[3.3]heptan-6-yl)-1-methyl-3-(5-(trifluoromethyl)pyridin-3-yl)urea], the values for the Ki in assay [1] and in assay [2] were less than 5 nM and 5 to 25 nM, respectively.

Regarding `COc1c(CO)cc(OC(F)(F)F)cc1NC(=O)N(C)C1CC2(C1)CN(c1cnc3[nH]ncc3c1)C2` [Example 218, 1-(2-(1H-pyrazolo[3,4-b]pyridin-5-yl)-2-azaspiro[3.3]heptan-6-yl)-3-(3-(hydroxymethyl)-2-methoxy-5-(trifluoromethoxy)phenyl)-1-methylurea], the Ki was less than 5 nM in assay [1] and 5 to 25 nM in assay [2].

`Cn1ccn2ncc(C(=O)N3CC4(CC(NC(=O)Nc5cccc(OC(F)F)c5)C4)C3)c12` [Example 67, 1-(3-(difluoromethoxy)phenyl)-3-(2-(1-methyl-1H-imidazo[1,2-b]pyrazole-7-carbonyl)-2-azaspiro[3.3]heptan-6-yl)urea]: the Ki in assay [1] was less than 5 nM; in assay [2], 5 to 25 nM.

As to `Cn1ccn2ncc(C(=O)N3CC4(CC(OC(=O)Nc5cncc(OC(F)(F)F)c5)C4)C3)c12` [Example 299, 2-(1-methyl-1H-imidazo[1,2-b]pyrazole-7-carbonyl)-2-azaspiro[3.3]heptan-6-yl(5-(trifluoromethoxy)pyridin-3-yl)carbamate], the Ki in assay [1] and in assay [2] was less than 5 nM in each case.

On to `O=C(Nc1cccc(C(F)(F)F)c1)NC1CC2(C1)CN(C(=O)c1cnn3c1SCCC3)C2` [Example 136, 1-(2-(6,7-dihydro-5H-pyrazolo[5,1-b][1,3]thiazine-3-carbonyl)-2-azaspiro[3.3]heptan-6-yl)-3-(3-(trifluoromethyl)phenyl)urea], for which the Ki in assay [1] was less than 5 nM; in assay [2], 5 to 25 nM.

Take `Cc1nc(NC(=O)N(C)C2CC3(C2)CN(C(=O)c2cnn4ccsc24)C3)cc(C(F)(F)F)n1` [Example 289, 1-methyl-3-(2-methyl-6-(trifluoromethyl)pyrimidin-4-yl)-1-(2-(pyrazolo[5,1-b]thiazole-7-carbonyl)-2-azaspiro[3.3]heptan-6-yl)urea]: the figures for the Ki in assay [1] and in assay [2] were less than 5 nM and 5 to 25 nM, respectively.

On to `O=C(Nc1cccc(C(F)(F)F)c1)NC1CC2(C1)CN(C(=O)c1cnn3c1SCC3)C2` [Example 135, 1-(2-(2,3-dihydropyrazolo[5,1-b]thiazole-7-carbonyl)-2-azaspiro[3.3]heptan-6-yl)-3-(3-(trifluoromethyl)phenyl)urea], for which the Ki in assay [1] is less than 5 nM; in assay [2], 5 to 25 nM.

`Cc1cc(C(F)(F)F)cc(NC(=O)N(C)C2CC3(C2)CN(C(=O)c2cnn4ccn(C)c24)C3)n1` [Example 300, 1-methyl-1-(2-(1-methyl-1H-imidazo[1,2-b]pyrazole-7-carbonyl)-2-azaspiro[3.3]heptan-6-yl)-3-(6-methyl-4-(trifluoromethyl)pyridin-2-yl)urea]: the results for the Ki in assay [1] and in assay [2] were less than 5 nM and 5 to 25 nM, respectively.
